We go through 1 molecule from patent EP2450062A1, “HYDROCOLLOID PLASTERS, INCLUDING VIABLE PROBIOTIC STRAINS OF LACTOBACILLUS SPP. AND USED FOR VARIOUS TYPES OF WOUNDS, INFECTED TISSUES, DRY WOUNDS AND DEEP WOUNDS” (Universidad De Concepcion, priority 2009, dated 2011).

For the experiment, the system named is Lactobacillus acidophilus LPV 31. The experiment is described as follows: bactericidal effect of glutaraldehyde in the films (bacterial counts). To be noted: GA concentrations studied, in gelatin films. From the text:
The cross-linking agent used is preferably, but not exclusively, glutaraldehyde (GA), due to its high efficiency stabilising collagen derivatives, its high reaction rate, and its ability to modify the physico-chemical properties of gelatin-based gels.

Turning to `O=CCCCC=O` [GA, glutaraldehyde], the bactericidal effect entry is “do not have an observable bactericidal effect”.
